We go through 11 compounds from patent publication US6620828B2, “Thiazole compounds and pharmaceutical compositions for inhibiting protein kinases and methods for their use” (Agouron Pharmaceuticals, Inc., priority 1999, dated 2003).

Like-named read-outs stand apart in the source and are kept apart here.

The target of one series is CDK2/Cyclin A complex (Homo sapiens, UniProt P24941). The experiment in a line: CDK2/Cyclin A assay. In kind it is biochemical. The note with it: for CDK2 % inhibition @ 10: at 10 (head μM). In outline:
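Radiometric assay: 150 nM CDK2/cyclin A (insect-cell CDK2, truncated cyclin A) phosphorylates His-tagged Rb fragment (residues 386-928) with 25 μM ATP plus [32P]ATP, pH 7.4 HEPES, 2% DMSO, 30 °C for 20 min. Filter-captured product counted by phosphorimager; apparent Ki from competitive or tight-binding inhibition fits.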

Another series addresses T1, CDK4/Cyclin D3 complex (Homo sapiens, UniProt P11802).
T1 construct: made in house; host or cells: insect cells co-infected with baculovirus vectors
The series can be described thus: CDK4/Cyclin D assay. Format: biochemical. The note with it: for CDK4 % inhibition @ 10: at 10 (head μM). In outline:
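Insect-cell-expressed CDK4/cyclin D3 (50 nM) phosphorylating His-tagged Rb fragment (residues 386-928) with 25 μM [^32P]ATP in HEPES pH 7.4, MgCl2, 2% DMSO; 20 min at 30 °C, EDTA stop. Filter-captured 32P by phosphorimager; apparent Ki from competitive or tight-binding inhibition fits.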

A further series addresses T2, CHK1 (Homo sapiens, UniProt O14757).
T2 sequence (O14757 1-476): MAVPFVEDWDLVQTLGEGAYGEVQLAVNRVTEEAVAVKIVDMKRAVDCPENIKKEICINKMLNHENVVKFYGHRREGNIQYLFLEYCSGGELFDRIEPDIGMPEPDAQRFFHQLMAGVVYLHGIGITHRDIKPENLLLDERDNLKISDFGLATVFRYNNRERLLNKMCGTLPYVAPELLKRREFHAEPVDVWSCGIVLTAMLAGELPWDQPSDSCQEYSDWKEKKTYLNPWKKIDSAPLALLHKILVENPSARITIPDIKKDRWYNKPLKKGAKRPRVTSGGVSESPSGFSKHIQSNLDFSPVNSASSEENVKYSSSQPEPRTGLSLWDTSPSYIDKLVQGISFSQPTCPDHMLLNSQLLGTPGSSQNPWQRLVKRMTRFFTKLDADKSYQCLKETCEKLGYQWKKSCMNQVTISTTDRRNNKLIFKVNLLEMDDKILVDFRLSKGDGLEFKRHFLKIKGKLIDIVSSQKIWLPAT
The series can be described thus: CHK1 high-throughput screening. In kind it is biochemical. The note with it: read-out: % inhibition @ 20 μM, Table 4, repeated entries per example.

In series [1] the target is T3, phosphorylated VEGF-R2Δ50 (Homo sapiens, UniProt P35968, DEL940-989/E990V).
T3 construct: VEGF-R2Δ50 contains residues 806-939 and 990-1171; made in house; host or cells: baculovirus/insect cells
The series can be described thus: VEGF-R2 ELISA assay. In kind it is biochemical. The note with it: * determined with ELISA assay, read-out: FLVK-P Ki. The text has this: VEGF-R2 Construct for Assay: This construct determines the ability of a test compound to inhibit tyrosine kinase activity. A construct (VEGF-R2Δ50) of the cytosolic domain of human vascular endothelial growth factor receptor 2 (VEGF-R2) lacking the 50 central residues of the 68 residues of the kinase insert domain was expressed in a baculovirus/insect cell system. Of the 1356 residues of full-length VEGF-R2, VEGF-R2Δ50 contains residues 806-939 and 990-1171, and also one point mutation (E990V) within the kinase insert domain relative to wild-type VEGF-R2. Autophosphorylation of the purified construct was performed by incubation of the enzyme at a concentration of 4 μM in the presence of 3 mM ATP and 40 mM MgCl2 in 100 mM Hepes, pH 7.5, containing 5% glycerol and 5 mM DTT, at 4° C. for 2 h. […] See Parast et al., Biochemistry, 37, 16788-16801 (1998).
Formation of phosphogastrin was monitored using biotinylated gastrin peptide (1-17) as substrate. Biotinylated phosphogastrin was immobilized using streptavidin coated 96-well microtiter plates followed by detection using anti-phosphotyrosine-antibody conjugated to horseradish peroxidase. The activity of horseradish peroxidase was monitored using 2,2′-azino-di-[3-ethylbenzathiazoline sulfonate(6)]diammonium salt (ABTS). Typical assay solutions contained: 2 μM biotinylated gastrin peptide; 5 mM DTT; 20 μM ATP; 26 mM MgCl2; and 2 mM MnCl2 in 200 mM Hepes, pH 7.5. The assay was initiated with 0.8 nM of phosphorylated VEGF-R2Δ50. Horseradish peroxidase activity was assayed using ABTS, 10 mM. The horseradish peroxidase reaction was quenched by addition of acid (H2SO4), followed by absorbance reading at 405 nm. Ki values were determined by measuring enzyme activity in the presence of varying concentrations of test compounds. The data were analyzed using Enzyme Kinetic and Kaleidagraph software.

Series [2] addresses T4, unphosphorylated VEGF-R2Δ50 (FLVK) (Homo sapiens, UniProt P35968, DEL940-989/E990V).
T4 construct: VEGF-R2Δ50 contains residues 806-939 and 990-1171; made in house; host or cells: baculovirus/insect cells
The series can be described thus: VEGF-R2 coupled spectrophotometric assay, unphosphorylated enzyme (FLVK). In kind it is biochemical. The note with it: Table 1. In outline: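 Unphosphorylated VEGF-R2Δ50 (5 to 40 nM) with 20 mM poly(E4Y1), 3 mM ATP, 60 mM MgCl2, 2 mM MnCl2 in 200 mM Hepes pH 7.5. ADP production coupled via PK/LDH to NADH oxidation, read at 340 nm. Ki from activity at varying compound concentrations.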

Series [3] deals with human umbilical vein endothelial cells (HUVEC). The series can be described thus: HUVEC proliferation assay. To be noted: Homo sapiens, HUVEC, Table 1. Format: cell-based. In outline:
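Exponentially growing HUVEC were serum-starved 24 h (F12K + 1% FBS), pre-treated 1 h with compound (0.1% DMSO final), then stimulated with 6 ng/ml VEGF. Proliferation was read 72 h later by MTT reduction (A595). IC50 came from seven 0.5-log concentrations in triplicate; screens gave % inhibition relative to VEGF-only and starved wells.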

The test system of series [4] is lung cancer cells (line MV522). The series can be described thus: Cancer cell proliferation (MV522) assay. The note with it: MV522, Table 1. Format: cell-based.
The target in series [5] is T5, phosphorylated VEGF-R2Δ50 (FLVK-P) (Homo sapiens, UniProt P35968, DEL940-989/E990V).
T5 construct: VEGF-R2Δ50 contains residues 806-939 and 990-1171; made in house; host or cells: baculovirus/insect cells
The experiment in a line: VEGF-R2 coupled spectrophotometric (FLVK-P) assay. In kind it is biochemical. To be noted: Table 2; spectrophotometric assay. In outline: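 Baculovirus-expressed human VEGF-R2Δ50 (residues 806-939/990-1171, E990V) was autophosphorylated with 3 mM ATP, 40 mM MgCl2 for 2 h at 4° C. ADP formation was coupled via PK/LDH to NADH oxidation, read at 340 nm, with 5.1 mM poly(E4Y1), 1 mM ATP, 25 mM MgCl2, Hepes pH 7.5. Ki came from activity across compound concentrations.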

Another series has as its target T6, FGF-R1 (Homo sapiens, UniProt P11362, C488A/C584S/L457V).
T6 construct: starting from the endogenous methionine residue 456 to glutamate 766; made in house; host or cells: baculovirus vector expression system
The series can be described thus: FGF-R spectrophotometric assay. In kind it is biochemical. The note with it: Table 2. The method, then: FGF-R1 Construct for Assay: The intracellular kinase domain of human FGF-R1 was expressed using the baculovirus vector expression system starting from the endogenous methionine residue 456 to glutamate 766, according to the residue numbering system of Mohammadi et al., Mol. Cell. Biol., 16, 977-989 (1996). In addition, the construct also has the following 3 amino acid substitutions: L457V, C488A, and C584S.
The spectrophotometric assay was carried out as described above for VEGF-R2, except for the following changes in concentration: FGF-R=50 nM, ATP=2 mM, and poly(E4Y1)=15 mM.

T3 sequence (P35968 with tags, fused parts or gaps DEL940-989/E990V limits assumed): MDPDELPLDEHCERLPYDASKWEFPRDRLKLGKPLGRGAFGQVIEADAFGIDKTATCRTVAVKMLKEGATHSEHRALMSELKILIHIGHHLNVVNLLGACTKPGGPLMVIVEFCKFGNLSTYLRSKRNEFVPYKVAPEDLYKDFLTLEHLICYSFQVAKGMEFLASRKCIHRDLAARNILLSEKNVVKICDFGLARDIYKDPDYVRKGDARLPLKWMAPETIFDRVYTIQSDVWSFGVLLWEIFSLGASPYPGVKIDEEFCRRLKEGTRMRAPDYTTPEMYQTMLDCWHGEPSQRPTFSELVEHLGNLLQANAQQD
T1 sequence (P11802 whole entry): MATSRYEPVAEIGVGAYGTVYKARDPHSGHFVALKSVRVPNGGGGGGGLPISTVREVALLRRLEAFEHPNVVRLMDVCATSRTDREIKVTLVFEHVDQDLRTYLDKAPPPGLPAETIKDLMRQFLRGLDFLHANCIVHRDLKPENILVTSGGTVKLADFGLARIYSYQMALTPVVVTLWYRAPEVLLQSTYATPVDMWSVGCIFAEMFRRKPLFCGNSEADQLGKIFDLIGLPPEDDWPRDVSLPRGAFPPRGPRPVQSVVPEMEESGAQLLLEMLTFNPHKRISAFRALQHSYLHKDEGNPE
T1 sequence (P30281 whole entry partner): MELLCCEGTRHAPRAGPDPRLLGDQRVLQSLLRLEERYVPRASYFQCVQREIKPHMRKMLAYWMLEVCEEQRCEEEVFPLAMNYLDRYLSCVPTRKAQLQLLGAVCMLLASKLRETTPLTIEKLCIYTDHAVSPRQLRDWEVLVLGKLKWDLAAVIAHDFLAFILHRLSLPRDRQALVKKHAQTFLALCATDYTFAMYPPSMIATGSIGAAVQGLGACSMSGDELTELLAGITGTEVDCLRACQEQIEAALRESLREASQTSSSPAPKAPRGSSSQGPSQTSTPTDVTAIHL
T4 sequence (P35968 with tags, fused parts or gaps DEL940-989/E990V limits assumed): as the sequence (P35968 with tags, fused parts or gaps DEL940-989/E990V limits assumed) above
T5 sequence (P35968 with tags, fused parts or gaps DEL940-989/E990V limits assumed): as above
T6 sequence (P11362 456-766 L457V/C488A/C584S): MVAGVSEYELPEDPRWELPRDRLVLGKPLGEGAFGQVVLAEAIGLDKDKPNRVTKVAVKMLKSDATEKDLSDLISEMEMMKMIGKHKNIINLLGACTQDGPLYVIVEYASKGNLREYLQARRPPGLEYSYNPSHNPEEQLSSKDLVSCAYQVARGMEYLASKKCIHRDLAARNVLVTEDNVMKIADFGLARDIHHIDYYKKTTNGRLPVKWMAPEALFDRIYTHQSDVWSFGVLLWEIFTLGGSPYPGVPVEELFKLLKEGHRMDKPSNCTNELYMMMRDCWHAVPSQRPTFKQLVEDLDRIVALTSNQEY

Turning to `Nc1nc(Nc2ccc(S(N)(=O)=O)cc2)sc1-c1nc(-c2ccc(F)cc2F)cs1` [A(4), 4-[4′-Amino-4-(2,4-difluoro-phenyl)-[2,5′]bithiazolyl-2′-ylamino]-benzenesulfonamide], the melting point (as a rule, the temperature, or range, at which the solid turns liquid) fell in the range of 233 to 238 °C. Also, at CDK2/Cyclin A complex (Table 2), the “CDK2 % inhibition @ 10” value amounted to 57% @. In addition, the “CDK4 % inhibition @ 10” value on CDK4/Cyclin D3 complex (Table 2) is on record as 42% @.

Turning to `Nc1nc(Nc2ccc(S(N)(=O)=O)cc2)sc1-c1nc(-c2cccc(C(=O)O)c2)cs1` [A(21), 3-[4′-Amino-2′-(4-sulfamoyl-phenylamino)-[2,5′]bithiazolyl-4-yl]-benzoic acid], the results for the Ki (at CDK2/Cyclin A complex (Table 2); at CDK4/Cyclin D3 complex (Table 2); in series [1] (Table 2)) were 8.21 µM, 45 µM and 8.8 µM, respectively. Further, the inhibition (in general, the relative decrease from the control value, in per cent) at 20 µM at CHK1 is -7.2%.

On to `Nc1nc(Nc2ccc(S(N)(=O)=O)cc2)sc1-c1nc(-c2ccc(Cl)cc2Cl)cs1` [A(6), 4-[4′-Amino-4-(2,4-dichloro-phenyl)-[2,5′]bithiazolyl-2′-ylamino]-benzenesulfonamide], for which the melting point was 173 to 175 °C (dec.). Moreover, the “CDK2 % inhibition @ 10” value at CDK2/Cyclin A complex (Table 2) came out at 36% @. Also, the “CDK4 % inhibition @ 10” value on CDK4/Cyclin D3 complex (Table 2) was found to be 54% @.

Take `COc1cc(Nc2nc(N)c(-c3nc(-c4cccc(NC(=O)c5ncc(C)s5)c4)no3)s2)cc(OC)c1OC` [D(51)]: the inhibitory constant (Ki) (in general, a dissociation constant, usually derived from enzyme kinetics or from competition with a known ligand) came to 0.00062 µM in series [2] and 0.032 µM in [1] (Table 1). Besides, the IC50 (commonly the concentration at which inhibition is half-maximal) was 0.04 µM in series [3] and over 10 µM in [4].

For `Nc1nc(Nc2ccc(S(N)(=O)=O)cc2)sc1-c1nc(-c2ccc(F)cc2)cs1` [A(5), 4-[4′-Amino-4-(4-fluoro-phenyl)-[2,5′]bithiazolyl-2′-ylamino]-benzenesulfonamide], the melting point is 254 to 257 °C. In addition, on CDK2/Cyclin A complex (Table 2), the “CDK2 % inhibition @ 10” value amounted to 27% @. For the same compound, the “CDK4 % inhibition @ 10” value at CDK4/Cyclin D3 complex (Table 2) was 30% @.

Turning to `Cc1ccc(-c2csc(-c3sc(Nc4ccc(S(N)(=O)=O)cc4)nc3N)n2)cc1` [A(24), 4-(4′-Amino-4-p-tolyl-[2,5′]bithiazolyl-2′-ylamino)-benzenesulfonamide], the values for the Ki (on CDK2/Cyclin A complex (Table 2); in [1] (Table 2)) were 3.4 µM and 5.5 µM, respectively. Further, at CHK1, the inhibition at 20 µM amounted to 13.3%. The “CDK4 % inhibition @ 10” value on CDK4/Cyclin D3 complex (Table 2) worked out at 64% @.

Compound `Cc1c(F)cc(-c2csc(-c3sc(Nc4ccc(S(N)(=O)=O)cc4)nc3N)n2)cc1Cl` [A(7), 4-[4′-Amino-4-(3-chloro-5-fluoro-4-methyl-phenyl)-[2,5′]bithiazolyl-2′-ylamino]-benzenesulfonamide] returned a melting point of 208 to 212 °C. Moreover, the “CDK2 % inhibition @ 10” value at CDK2/Cyclin A complex (Table 2) came to 25% @. Besides, on CDK4/Cyclin D3 complex (Table 2), the “CDK4 % inhibition @ 10” value stood at 28% @.

Turning to `COc1cc(Nc2nc(N)c(-c3nc(-c4cccc(NC(=O)Oc5ccccc5)c4)cs3)s2)cc(OC)c1OC` [D(4), {3-[4′-Amino-2′-(3,4,5-trimethoxy-phenylamino)-[2,5′]bithiazolyl-4-yl]-phenyl}-carbamic acid phenyl ester], the 50% inhibitory concentration (IC50) in [3] was 0.24 µM; in [4] it was over 10 µM. Also, the Ki in series [1] (Table 1) was found to be 0.0076 µM.

In the case of `CON(C)C(=O)c1csc(-c2sc(Nc3ccc(S(N)(=O)=O)cc3)nc2N)n1` [N(3), 4′-Amino-2′-(4-sulfamoyl-phenylamino)-[2,5′]bithiazolyl-4-carboxylic acid methoxy-methyl-amide], the melting point fell in the range of 195 to 198 °C. Further, on CDK2/Cyclin A complex (Table 3), the inhibition constant (Ki) was 0.1 µM. Besides, the Ki on CDK4/Cyclin D3 complex (Table 3) was 1.1 µM.

Consider `COc1cc(Nc2nc(N)c(C3=NC(c4ccccc4)CO3)s2)cc(OC)c1OC` (stereo not shown) [I(6), S-5-(4-Phenyl-4,5-dihydro-oxazol-2-yl)-N^2-(3,4,5-trimethoxyl-phenyl)-thiazole-2,4-diamine], for which the inhibitory constant (Ki) was 0.1 µM in series [5] and 22 µM at FGF-R1.

`Nc1nc(Nc2ccc(S(N)(=O)=O)cc2)sc1-c1nc(-c2cc(O)cc(OCc3ccccc3)c2)cs1` [A(61), 4-[4′-Amino-4-(3-benzyloxy-5-hydroxy-phenyl)-[2,5]bithiazolyl-2′-ylamino]-benzenesulfonamide]: the melting point was 185 to 187 °C (dec.). In addition, the inhibition constant (Ki) at CDK2/Cyclin A complex (Table 2) was 2.7 µM.
